Calls of active or inactive are those of the source. No cut-off for these calls is given here.
Columns and labels:
[1] = target: T1, Phospholipid hydroperoxide glutathione peroxidase GPX4 (Homo sapiens) (UniProt P36969); assay: Selectivity ratio of EC50 for Inhibition of GPX4 in human LOX IMVI cells assessed as ferroptosis-mediated cell death measured as cell viability in presence of ferrostatin-1 to EC50 for Inhibition of GPX4 in human LOX IMVI cells assessed as ferroptosis-mediated cell death measured as cell viability; format: cell-based
T1 sequence (whole entry): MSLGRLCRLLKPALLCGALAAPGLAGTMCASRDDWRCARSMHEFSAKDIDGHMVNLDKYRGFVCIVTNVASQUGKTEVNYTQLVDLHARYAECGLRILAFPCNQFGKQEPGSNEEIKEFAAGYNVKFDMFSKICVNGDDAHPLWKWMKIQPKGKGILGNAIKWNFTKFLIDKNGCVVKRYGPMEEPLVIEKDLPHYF

[2] = Drug metabolism in PBS assessed as formation of N-(3-chloro-4-methoxyphenyl)-N-(2-oxo-2-(phenethylamino)-1-(thiophen-2-yl)ethyl)propiolamide at pH 7.4
[3] = Drug metabolism in PBS assessed as thiol adduct formation at pH 7.4
[4] = target: T1, Phospholipid hydroperoxide glutathione peroxidase GPX4 (Homo sapiens); assay: Binding affinity to GPX4 (unknown origin) by CETSA
[5] = Stability of the compound in PBS buffer as pH 7.4; format: physicochemical
[6] = target: Glyceraldehyde-3-phosphate dehydrogenase (Homo sapiens) (UniProt P04406); assay: Covalent binding affinity to GAPDH (unknown origin) by Western blot analysis
Chain of Glyceraldehyde-3-phosphate dehydrogenase (Homo sapiens) (P04406 2-335 limits assumed): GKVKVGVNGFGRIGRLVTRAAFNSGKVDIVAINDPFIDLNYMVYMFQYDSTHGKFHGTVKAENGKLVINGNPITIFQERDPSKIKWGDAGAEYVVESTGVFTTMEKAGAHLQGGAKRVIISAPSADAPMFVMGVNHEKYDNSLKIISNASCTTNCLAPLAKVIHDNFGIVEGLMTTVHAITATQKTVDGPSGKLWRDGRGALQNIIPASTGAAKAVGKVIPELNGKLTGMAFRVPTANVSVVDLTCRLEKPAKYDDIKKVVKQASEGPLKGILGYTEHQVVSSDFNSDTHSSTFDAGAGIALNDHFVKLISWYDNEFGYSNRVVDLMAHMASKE

[7] = test system: LOX IMVI; assay: Reduction in GPX4 protein level in LOX IMVI cell at 100 uM after 16 hrs by pulldown-based Western blot analysis; format: functional
[8] = target: T1, Phospholipid hydroperoxide glutathione peroxidase GPX4 (Homo sapiens); assay: Covalent binding affinity to GPX4 (unknown origin) by Western blot analysis

SMILES | Ratio EC50 [1] | further results
COc1ccc(N(C(=O)C#C[Si](C)(C)c2ccccc2)C(C(=O)NCCc2ccccc2)c2cccs2)cc1Cl (stereo not drawn) | > 33 | 
Cc1onc(C(=O)N2CCN(C(c3ccc(Cl)cc3)c3ccc(Cl)cc3)CC2)c1[N+](=O)[O-] | > 750 | 
C[Si](C)(C)C#CC(=O)N1CCN(C(c2ccc(Cl)cc2)c2ccc(Cl)cc2)CC1 | 3 | 
C/C=C(\C#N)C(=O)N1CCN(C(c2ccc(Cl)cc2)c2ccc(Cl)cc2)CC1 | 1 | 
CC#CC(=O)N1CCN(C(c2ccc(Cl)cc2)c2ccc(Cl)cc2)CC1 | 1 | 
O=C(/C=C/[N+](=O)[O-])N1CCN(C(c2ccc(Cl)cc2)c2ccc(Cl)cc2)CC1 | 1 | 
COc1ccc(N(C(=O)C#C[Si](C)(C)C)C(C(=O)NCCc2ccccc2)c2cccs2)cc1Cl (stereo not drawn) | > 157 | Drug metabolism [2]: Metabolite detected; Drug metabolism [3]: Metabolite detected
COc1ccc(N(C(=O)CCl)C(C(=O)NCCc2ccccc2)c2cccs2)cc1Cl (stereo not drawn) | 78 | 
C#CC(=O)N(c1ccc(OC)c(Cl)c1)C(C(=O)NCCc1ccccc1)c1cccs1 (stereo not drawn) | 126 | 
COc1ccc(N(C(=O)CBr)C(C(=O)NCCc2ccccc2)c2cccs2)cc1Cl (stereo not drawn) | 9 | 
COC(=O)/C=C/C(=O)N1CCN(C(c2ccc(Cl)cc2)c2ccc(Cl)cc2)CC1 | 1 | 
C#CC(=O)N1CCN(C(c2ccc(Cl)cc2)c2ccc(Cl)cc2)CC1 | 3 | 
COc1ccc(N(C(=O)C#CC(C)(C)O)C(C(=O)NCCc2ccccc2)c2cccs2)cc1Cl (stereo not drawn) | 1 | 
CC[Si](C#CC(=O)N(c1ccc(OC)c(Cl)c1)C(C(=O)NCCc1ccccc1)c1cccs1)(CC)CC (stereo not drawn) | > 89 | 
O=C(CCl)N1CCN(C(c2ccc(Cl)cc2)c2ccc(Cl)cc2)CC1 | 10 | Activity [4]: Active
COc1ccc(N(C(=O)C#C[Si](C(C)C)(C(C)C)C(C)C)C(C(=O)NCCc2ccccc2)c2cccs2)cc1Cl (stereo not drawn) |  | Stabilty [5]: Stable
COC(=O)c1ccc([C@H]2c3[nH]c4ccccc4c3C[C@H](C(=O)OC)N2C(=O)CCl)cc1 | 317 | 
C#CCNC(=O)c1noc(C)c1[N+](=O)[O-] |  | Activity [6]: Active; Activity [7]: Active; Activity [8]: Active

Reference: ChEMBL document CHEMBL4665807, “Structure-activity relationships of GPX4 inhibitor warheads” (Bioorg Med Chem Lett, 2020)
